These molecules were tested against T1, P236L viral reverse transcriptase (Human immunodeficiency virus type 1 group M subtype B, UniProt P04585, P823L) (assay: inhibition of viral reverse transcriptase (P236L), cell free assay). Details: 30 minutes at 37° C., read-out: IC50 (Table I, P236L).
T1 construct: P236L viral reverse transcriptase is obtained by PNAS 90: 4713-4717 (1993); made in house
Assay type: biochemical
Excerpt: The utility of the pyrimidine-thioalkyl and alkylether anti-AIDS compounds of Formula IA of this invention can be determined by their ability to inhibit viral reverse transcriptase, an enzyme essential for human immunodeficiency virus replication. This enzyme has characteristics which differentiate it from other known cellular polymerases and it is a unique enzyme which is not found in uninfected cells. Viral reverse transcriptase (Wild Type) is found in extracts from bacterial clones prepared according to the procedure described in AIDS Virus Reverse Transcriptase defined by high level expression in Escherichia coli, EMBO J. 6:3133-3137 (1987). P236L viral reverse transcriptase is obtained by PNAS 90: 4713-4717 (1993). Inhibition of this enzyme is determined in a cell free assay which measures the level of radioactive precursors incorporated into DNA. Extracts prepared according to the procedure of Science, 1125-1129 (1981) are incubated in a mixture of inhibitor, 20 mM dithiothreitol, 60 mM sodium chloride, 0.05% NP-40, 10 mM magnesium chloride, 50 mM Tris pH 8.3, 10 μM [^35 S]-labeled deoxynuleoside-5'-triphosphate, 10 μg/ml RNA template (poly rC or poly rG) and 5 μg/ml DNA primer (oligo dG or oligo dT) for 30 minutes at 37° C. Incorporation of radio-labeled percursor is determined by spotting aliquots of the reaction mixture on DE81 paper, washing the papers to remove unincorporated percursor, drying and determining counts. The results (IC50 means the concentration, in μM of drug, required to inhibit the reverse transcriptase activity (P236L and Wild Type) to the extent of 50%) of various assay(s) are combined and reported as % inhibition and/or IC50 (calculated) in Table I (P236L) and Table II (Wild Type).
In the case of `Nc1cc(Cl)nc(SCc2cc(Br)cc(Br)c2)n1` [Example 52, 4-amino-6-chloro-2-(3,5-dibromophenylmethylthio)-pyrimidine], the IC50 is reported as 200 nM.
`Nc1nc(SCc2cc(Cl)ccn2)nc(Cl)c1F` [Example 192] showed an IC50 of 20 nM.
For `Nc1cc(Cl)nc(SCc2cc3ccccc3o2)n1` [Example 153, 4-Amino-6-chloro-2-[(benzofuran-2-ylmethyl)thio]pyrimidine], the IC50 was 10000 nM.
With `Nc1cc(Cl)nc(SCc2cc(Cl)ccn2)n1` [Example 111, 4-amino-6-chloro-2-[2-(4-chloro)-5 pyridylmethylthio]-pyrimidine] the IC50 was 30 nM.
Work on `Nc1cc(Cl)nc(SCc2ccc3ccccc3c2)n1` [Example 59, 4-amino-6-chloro-2-(2-naphthylmethylthio)-pyrimidine] yielded an IC50 of 36 nM.
`CCc1ccnc(CSc2nc(N)cc(Cl)n2)c1` [Example 122, 4-amino-6-chloro-2-[2-(4-ethyl)pyridylmethylthio]-pyrimidine] was tested, and the IC50 was 10 nM.
Molecule `Nc1cc(Cl)nc(SCc2ccnc3ccccc23)n1` [Example 181, 4-Amino-6-chloro-2-[(quinolin-4-ylmethyl)thio]pyrimidine] has an IC50 of 1000 nM.
`CC(C)(O)c1ccnc(CSc2nc(N)cc(Cl)n2)c1` [Example 135] was tested, and the IC50 was 100 nM.
Work on `Cc1cc(CSc2nc(N)cc(Cl)n2)no1` [Example 174, 4-Amino-6-chloro-2-[(5-methylisoxazol-3-ylmethyl)thio]pyrimidine] yielded an IC50 of 500 nM.
Molecule `Nc1cc(Cl)nc(SCc2cccnc2)n1` [Example 57, 4-amino-6-chloro-2-(3-pyridylmethylthio)-pyrimidine] has an IC50 of 10000 nM.
`CCCc1ccnc(CSc2nc(N)cc(Cl)n2)c1` [Example 131, 4-amino-6-chloro-2-[2-(4-propyl)pyridylmethylthio]-pyrimidine] showed an IC50 of 50 nM.
For `Cc1cnc(CSc2nc(N)cc(Cl)n2)cc1C` [Example 140, 4-amino-6-chloro-2-[2-(4,5-dimethyl)pyridylmethylthio]-pyrimidine], the IC50 was 20 nM.
Work on `Nc1cc(Cl)nc(SCc2cccc(C(F)(F)F)c2)n1` [Example 38, 4-amino-6-chloro-2-(3-trifluoromethylphenylmethylthio)-pyrimidine] yielded an IC50 of 1000 nM.
Molecule `Clc1cc(N2CCOCC2)nc(SCc2ccccc2)n1` [Example 86, 4-morpholino-6-chloro-2-(benzylthio)-pyrimidine] has an IC50 of 40000 nM.
`CCC(C)c1ccnc(CSc2nc(N)cc(Cl)n2)c1` (stereo not shown) [Example 145, 4-amino-6-chloro-2-[2-(4-(2-butyl))pyridylmethylthio]-pyrimidine] gave an IC50 of 10 nM.
For `Nc1cc(Cl)nc(SCc2ccc(Cl)cc2Cl)n1` [Example 51, 4-amino-6-chloro-2-(2,4-dichlorophenylmethylthio)-pyrimidine], the IC50 was 1000 nM.
Molecule `Nc1ccnc(SCc2ccc3ccccc3c2)n1` [Example 98, 4-amino-2-(2-naphthylmethylthio)-pyrimidine] has an IC50 of 5000 nM.
`Cn1ccnc1CSc1nc(N)cc(Cl)n1` [Example 176, 4-Amino-6-chloro-2-[(1-methylimidazol-2-ylmethyl)thio]pyrimidine] gave an IC50 of 25000 nM.
`COc1c(N)nc(SCc2ccc3ccccc3c2)nc1Cl` [Example 89, 4-amino-5-methoxy-6-chloro-2-(2-naphthylmethylthio)-pyrimidine] showed an IC50 of 5000 nM.
Molecule `Nc1cc(Cl)nc([S+]([O-])Cc2ccc3ccccc3c2)n1` (stereo not shown) [Example 68, 4-amino-6-chloro-2-(2-naphthylmethylsulfinyl)-pyrimidine] has an IC50 of 5000 nM.
For `Nc1cc(Cl)nc(SCc2cccc3ccccc23)n1` [Example 58, 4-amino-6-chloro-2-(1-naphthylmethylthio)-pyrimidine], the IC50 was 30 nM.
In the case of `CN(C)c1ccnc(CSc2nc(N)cc(Cl)n2)c1` [Example 146, 4-amino-6-chloro-2-[2-(4-dimethylamino)pyridylmethylthio]-pyrimidine], the IC50 is reported as 10 nM.
With `Cc1cc(CSc2nc(N)cc(Cl)n2)nc(C)n1` [Example 142, 4-amino-6-chloro-2-[4-(2,6-dimethyl)pyrimidinylmethylthio]-pyrimidine] the IC50 was 500 nM.
`Nc1ccnc(SCc2cccc(Br)c2)n1` [Example 95, 4-amino-2-(3-bromophenylmethylthio)-pyrimidine] gave an IC50 of 1000 nM.
`Cc1ccccc1CSc1nc(N)cc(Cl)n1` [Example 35, 4-amino-6-chloro-2-(2-methylphenylmethylthio)-pyrimidine] gave an IC50 of 300 nM.
`Nc1cc(Cl)nc(SCc2ccc3ncccc3c2)n1` [Example 178, 4-Amino-6-chloro-2-[(quinolin-6-ylmethyl)thio]pyrimidine] showed an IC50 of 500 nM.
With `Cc1cc(C)nc(CSc2nc(N)cc(Cl)n2)c1` [Example 121, 4-amino-6-chloro-2-[2-(4,6-dimethyl)pyridylmethylthio]-pyrimidine] the IC50 was 10 nM.
Molecule `Cc1cccc(CSc2nc(N)cc(Cl)n2)c1` [Example 36, 4-amino-6-chloro-2-(3-methylphenylmethylthio)-pyrimidine] has an IC50 of 50 nM.
For `Nc1cc(Cl)nc(SCc2cccc(Cl)c2)n1` [Example 42, 4-amino-6-chloro-2-(3-chlorophenylmethylthio)-pyrimidine], the IC50 was 500 nM.
`NNc1cc(Cl)nc(SCc2ccccc2)n1` [Example 88, 4-hydrazino-6-chloro-2-(benzylthio)-pyrimidine] was tested, and the IC50 was 5000 nM.
`Cc1ccc(CSc2nc(N)cc(Cl)n2)cc1` [Example 37, 4-amino-6-chloro-2-(4-methylphenylmethylthio)-pyrimidine] gave an IC50 of 330 nM.
Work on `Nc1cc(Cl)nc(SCc2ccc(Cl)c(Cl)c2)n1` [Example 49, 4-amino-6-chloro-2-(3,4-dichlorophenylmethylthio)-pyrimidine] yielded an IC50 of 60 nM.
With `Nc1cc(Cl)nc(SCc2ccc3c(c2)OCO3)n1` [Example 186, 4-Amino-6-chloro-2-[(piperon-5-ylmethyl)thio]pyrimidine] the IC50 was 500 nM.
`Clc1cc(N2CCCC2)nc(SCc2ccccc2)n1` [Example 85, 4-pyrrolidino-6-chloro-2-(benzylthio)-pyrimidine] was tested, and the IC50 was 30000 nM.
`COc1cc(C)nc(CSc2nc(N)cc(Cl)n2)c1` [Example 120, 4-amino-6-chloro-2-[2-(4-methoxy-6-methyl)-pyridylmethylthio]-pyrimidine] was tested, and the IC50 was 20 nM.
Molecule `COC(=O)c1cccc(CSc2nc(N)cc(Cl)n2)c1` [Example 46, 4-amino-6-chloro-2-(3-carbomethoxyphenylmethylthio)-pyrimidine] has an IC50 of 100 nM.
`Nc1nc(SCc2cc(Cl)ccn2)nc(Cl)c1F` [Example 149, 4-amino-6-chloro-5-fluoro-2-[2-(4-chloro)pyridylmethylthio]pyrimidine] showed an IC50 of 50 nM.
Molecule `COc1ccnc(CSc2nc(N)cc(Cl)n2)c1` [Example 123, 4-amino-6-chloro-2-[2-(4-methoxy)pyridylmethylthio]-pyrimidine] has an IC50 of 50 nM.
For `Nc1cc(Cl)nc(SCC2=CCc3ccccc32)n1` [Example 155, 4-amino-6-chloro-2-[(1H-inden-3-ylmethyl)thio]pyrimidine], the IC50 was 5000 nM.
Work on `Cc1cccnc1CSc1nc(N)cc(Cl)n1` [Example 117, 4-amino-6-chloro-2-[2-(3-methyl)pyridylmethylthio]-pyrimidine] yielded an IC50 of 1050 nM.
For `Nc1cc(Cl)nc(SCC(=O)c2ccccc2)n1` [Example 100, 4-amino-6-chloro-2-[2-(1-phenyl-1-ethanon)thio]-pyrimidine], the IC50 was 2000 nM.
Work on `Cc1ccc(CSc2nc(N)cc(Cl)n2)nc1` [Example 118, 4-amino-6-chloro-2-[2-(5-methyl)pyridylmethylthio]-pyrimidine] yielded an IC50 of 70 nM.
For `CCOc1ccnc(CSc2nc(N)cc(Cl)n2)c1` [Example 115, 4-amino-6-chloro-2-[2-(4-ethoxy)pyridylmethylthio]-pyrimidine], the IC50 was 50 nM.
`Cc1cncc(CSc2nc(N)cc(Cl)n2)n1` [Example 173, 4-Amino-6-chloro-2-[(6-methylpyrazin-2-ylmethyl)thio]pyrimidine] was tested, and the IC50 was 10000 nM.
Molecule `Clc1cc(N2CCCCC2)nc(SCc2ccccc2)n1` [Example 84, 4-piperido-6-chloro-2-(benzylthio)-pyrimidine] has an IC50 of 10000 nM.
Work on `Nc1cc(Cl)nc(SCc2cc3ccccc3s2)n1` [Example 158, 4-Amino-6-chloro-2-[(benzothiophen-2-ylmethyl)thio]pyrimidine] yielded an IC50 of 1000 nM.

Same assay, conditions: IC50 (Table I, P236L), 30 minutes at 37° C.
Molecule `COC(=O)c1ccc(CSc2nc(N)cc(Cl)n2)nc1` [Example 188, 4-amino-6-chloro-2[2-(5-carbomethyoxy)pyridylmethylthio]pyrimidine] has an IC50 of 50000 nM.
`CNc1cc(C#N)nc(SCc2ccc3ccccc3c2)n1` [Example 288, 6-methylamino-2-(2-naphthylmethyl)thio-4-pyrimidine carbonitrile] gave an IC50 of 50000 nM.
For `Nc1cc(Cl)nc(SCc2ccc(-c3ccccc3)cn2)n1` [Example 133, 4-amino-6-chloro-2-[2-(5-phenyl)pyridylmethylthio]-pyrimidine], the IC50 was 1000 nM.
